Reference: patent US8937056B2, “Multikinase inhibitors for use in the treatment of cancer” (Eisai R&D Management Co., Ltd., priority 2007, dated 2015)

Columns and labels:
Abl kinase = Abl kinase (Homo sapiens, UniProt P00519); test: Kinase inhibition, full range of concentrations; type: biochemical; conditions: 10 μM ATP, duplicate measurements
Method: (§1) In a final reaction volume of 25 μL, each human enzyme was incubated with appropriate buffer. The reaction was initiated by the addition of the MgATP mix with [γ^33P-ATP]. After incubation for 40 minutes at room temperature, the reaction was stopped by the addition of 5 μL of a phosphoric acid solution. All assays were performed at an ATP concentration of 10 μM.
(§2) 10 μL of the reaction was spotted onto a P30 filtermat and washed three times for 5 minutes in a phosphoric acid solution. ^33P transferred to a substrate peptide was then determined by scintillation counting. The results were expressed as a percentage of that in control incubations.
(§3) Furthermore, inhibitory activities of the compounds were confirmed against six of these kinases with a full range of concentrations. Three cytoplasmic Src family kinases were studied: c-Src, Fyn and Lyn. We also studied cytoplasmic Abl kinase and two receptor tyrosine kinases: Flt3, and TrkB. A standard ATP concentration of 10 μM was used in all reactions. All experiments were conducted with duplicate measurements. […] TrkB and members of the Src family were the most sensitive enzymes to Compound 091 inhibition.

Flt3 = target: T1, Flt3 (Homo sapiens, UniProt P36888); test: Kinase inhibition, full range of concentrations; type: biochemical; conditions: 10 μM ATP, duplicate measurements
T1 sequence (P36888 27-993): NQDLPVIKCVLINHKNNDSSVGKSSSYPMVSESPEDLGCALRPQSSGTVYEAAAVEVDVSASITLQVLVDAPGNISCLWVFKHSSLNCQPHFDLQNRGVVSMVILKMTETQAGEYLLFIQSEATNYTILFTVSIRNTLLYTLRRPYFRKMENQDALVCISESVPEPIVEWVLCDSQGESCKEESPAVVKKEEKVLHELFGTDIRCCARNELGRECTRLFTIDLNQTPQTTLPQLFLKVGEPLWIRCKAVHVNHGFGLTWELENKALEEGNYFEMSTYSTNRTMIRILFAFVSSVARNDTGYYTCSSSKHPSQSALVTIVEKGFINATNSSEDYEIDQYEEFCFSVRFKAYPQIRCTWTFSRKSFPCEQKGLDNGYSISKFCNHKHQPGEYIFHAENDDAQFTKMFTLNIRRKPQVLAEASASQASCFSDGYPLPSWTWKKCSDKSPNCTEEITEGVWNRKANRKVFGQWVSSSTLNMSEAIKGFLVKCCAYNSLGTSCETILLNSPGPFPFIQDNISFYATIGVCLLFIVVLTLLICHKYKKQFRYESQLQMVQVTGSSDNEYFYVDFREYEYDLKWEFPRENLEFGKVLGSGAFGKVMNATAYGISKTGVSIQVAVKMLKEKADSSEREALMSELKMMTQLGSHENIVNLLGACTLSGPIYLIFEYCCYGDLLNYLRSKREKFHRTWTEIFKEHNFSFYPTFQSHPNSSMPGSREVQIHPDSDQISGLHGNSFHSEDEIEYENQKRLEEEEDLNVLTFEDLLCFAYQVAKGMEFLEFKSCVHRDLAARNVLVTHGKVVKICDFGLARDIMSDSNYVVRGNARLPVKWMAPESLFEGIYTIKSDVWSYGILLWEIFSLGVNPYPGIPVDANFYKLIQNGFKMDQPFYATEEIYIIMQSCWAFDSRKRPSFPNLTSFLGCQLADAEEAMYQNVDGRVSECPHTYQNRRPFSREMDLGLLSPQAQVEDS
Method: as §1, §2, §3

Fyn = Fyn (Homo sapiens, UniProt P06241); test: Kinase inhibition, full range of concentrations; type: biochemical; conditions: 10 μM ATP, duplicate measurements
Method: as §1, §2, §3

Lyn = Lyn (Homo sapiens, UniProt P07948); test: Kinase inhibition, full range of concentrations; type: biochemical; conditions: 10 μM ATP, duplicate measurements
Method: as §1, §2, §3

TrkB = TrkB (Homo sapiens, UniProt Q16620); test: Kinase inhibition, full range of concentrations; type: biochemical; conditions: 10 μM ATP, duplicate measurements
Method: as §1, §2, §3

[1] = tested on: Cell lines which carried a B-RAF V600E mutation; test: Cell growth inhibition in solid cancer cell lines (CellTiter-Glo or methylene blue); type: cell-based; conditions: 96 hours, B-RAF V600E mutated cell lines very sensitive
Method: Compounds 091 and 106, were extensively tested in solid cancer cell lines (shown in FIG. 3 for 18 cell lines for compound 091 and 20 cell lines for compound 106). […] Cell growth was assessed using a CellTiter-Glo® Luminescent Cell Viability Assay (Promega) or a methylene blue assay.

[2] = tested on: Colo205 human colon cancer xenografts; test: In vivo antitumor activity in Colo205 xenografts; parameters: species or system mice; conditions: 30 mg/kg i.v., two weekly rounds of q1d×5
Method: A study was carried out to investigate anticancer activity of compounds 091 and 106 in human Colo205 BRAF mutated colon cancer xenografts. The compounds were evaluated against subcutaneous-implanted Colo205 human colon cancer xenografts in female athymic mice.
(§4) The human colon cancer cell line, Colo205 which has B-RAF (V600E) mutation was transplanted subcutaneously into female nude mice. The experiment consisted of 6 mice per group on the first day of treatment. The compound was administered intravenously for two weekly rounds of five daily injections (q1d×5) with a two-day rest period between the rounds. Compound 091 was administered in a vehicle volume of 0.1 mL/10 g of body weight.
The general health of the mice was monitored daily. Tumor dimensions and body weights were recorded twice a week starting on the first day of treatment. Tumor weights were calculated using the equation (l×w^2)/2, where 1 and w refer to the larger and smaller dimensions collected at each measurement. When the mean tumor volume reached 140 mm^3, vehicle (cremophor:ethanol:5% glucose; 1:1:8) or the test compound (30 mg/kg) was administered to mice (6/group).

[3] = tested on: LOX human melanoma xenografts; test: In vivo antitumor activity in LOX xenografts; parameters: species or system mice
Method: A study was carried out to investigate anticancer activity of compounds 091 and 106 in human LOX BRAF mutated melanoma xenografts. The compounds were evaluated against subcutaneous-implanted LOX human melanoma xenografts in female athymic mice.
as §4, with “human melanoma” for “human colon cancer”, “line, LOX” for “line, Colo205”, “of 8” for “of 6”, “treatment. Compounds were independently” for “treatment. The compound was”, “rounds. Compounds were” for “rounds. Compound 091 was”
The general health of the mice was monitored daily. Tumor dimensions and body weights were recorded twice a week starting on the first day of treatment. Tumor weights were calculated using the equation (l×w^2)/2, where 1 and w refer to the larger and smaller dimensions collected at each measurement. When the mean tumor volume reached 128 mm^3, vehicle (cremophor:ethanol:5% glucose; 1:1:8) or one of the test compounds (10, 20, 30, or 40 mg/kg) was administered to mice (8/group).

[4] = tested on: PANC-1 pancreatic cancer cells; test: PANC-1 cell growth, alone or in combination with SN-38 (CellTiter-Glo)
Method: To determine whether compounds 091 or 106 in combination with SN-38 would enhance the anticancer activity of chemotherapy due to MEKK1 inhibition, PANC-1 human pancreatic cancer cells were examined.
Antiproliferative effects of SN-38 were evaluated in PANC-1 pancreatic cancer cells in combination with compound 091 or 106. Cultured human cancer cells were placed into 96-well plates and grown in the absence or continuous presence of 0.03-1000 nM SN-38 for 96 h with or without 1 μM of test compound. Cell growth was assessed using CellTiter-Glo® Luminescent Cell Viability Assay (Promega). IC50 values were determined as the concentration of a substance which inhibits cell growth by 50% compared to untreated cell populations.

Chain of Lyn (P07948 whole entry): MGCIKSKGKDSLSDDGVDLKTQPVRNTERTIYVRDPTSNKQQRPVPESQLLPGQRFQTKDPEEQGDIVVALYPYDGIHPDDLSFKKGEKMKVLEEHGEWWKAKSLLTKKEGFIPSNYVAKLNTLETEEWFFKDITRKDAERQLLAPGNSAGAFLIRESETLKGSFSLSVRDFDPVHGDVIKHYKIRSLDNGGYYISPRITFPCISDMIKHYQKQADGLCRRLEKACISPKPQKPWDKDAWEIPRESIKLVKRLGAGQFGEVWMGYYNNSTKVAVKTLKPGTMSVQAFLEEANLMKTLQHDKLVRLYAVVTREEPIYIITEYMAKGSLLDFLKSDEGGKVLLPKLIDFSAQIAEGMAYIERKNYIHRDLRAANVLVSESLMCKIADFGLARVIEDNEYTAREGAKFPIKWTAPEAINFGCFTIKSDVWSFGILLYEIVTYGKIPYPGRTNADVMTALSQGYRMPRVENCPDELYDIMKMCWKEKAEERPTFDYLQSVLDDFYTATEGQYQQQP
Chain of Abl kinase (P00519 whole entry): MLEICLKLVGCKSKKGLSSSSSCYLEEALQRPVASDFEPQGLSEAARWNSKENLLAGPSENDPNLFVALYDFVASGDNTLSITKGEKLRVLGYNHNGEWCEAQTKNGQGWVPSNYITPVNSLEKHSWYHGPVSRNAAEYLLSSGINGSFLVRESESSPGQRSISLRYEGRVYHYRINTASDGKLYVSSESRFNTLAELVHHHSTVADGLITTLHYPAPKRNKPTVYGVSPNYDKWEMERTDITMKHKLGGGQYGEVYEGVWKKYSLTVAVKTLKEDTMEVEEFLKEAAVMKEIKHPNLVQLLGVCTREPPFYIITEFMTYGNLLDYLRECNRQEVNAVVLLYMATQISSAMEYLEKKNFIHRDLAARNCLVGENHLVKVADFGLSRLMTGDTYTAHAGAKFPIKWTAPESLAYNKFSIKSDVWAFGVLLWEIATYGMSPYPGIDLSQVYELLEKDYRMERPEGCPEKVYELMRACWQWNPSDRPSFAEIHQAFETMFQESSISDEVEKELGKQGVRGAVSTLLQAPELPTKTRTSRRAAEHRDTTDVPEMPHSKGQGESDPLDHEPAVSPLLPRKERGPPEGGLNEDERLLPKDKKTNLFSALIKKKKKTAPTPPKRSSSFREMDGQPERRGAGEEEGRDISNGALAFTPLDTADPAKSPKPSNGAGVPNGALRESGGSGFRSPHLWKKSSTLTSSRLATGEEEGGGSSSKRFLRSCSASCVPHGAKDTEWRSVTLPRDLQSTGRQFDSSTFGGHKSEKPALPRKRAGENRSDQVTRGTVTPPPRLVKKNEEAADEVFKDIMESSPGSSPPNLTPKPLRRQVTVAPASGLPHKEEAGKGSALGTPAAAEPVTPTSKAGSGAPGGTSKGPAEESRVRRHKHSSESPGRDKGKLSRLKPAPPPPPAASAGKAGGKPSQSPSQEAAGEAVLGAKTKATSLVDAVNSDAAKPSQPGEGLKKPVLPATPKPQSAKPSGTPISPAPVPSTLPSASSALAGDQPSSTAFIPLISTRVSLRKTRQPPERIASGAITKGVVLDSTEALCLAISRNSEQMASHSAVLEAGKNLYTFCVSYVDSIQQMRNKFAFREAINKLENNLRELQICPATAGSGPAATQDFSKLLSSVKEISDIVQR
Chain of TrkB (Q16620 32-822): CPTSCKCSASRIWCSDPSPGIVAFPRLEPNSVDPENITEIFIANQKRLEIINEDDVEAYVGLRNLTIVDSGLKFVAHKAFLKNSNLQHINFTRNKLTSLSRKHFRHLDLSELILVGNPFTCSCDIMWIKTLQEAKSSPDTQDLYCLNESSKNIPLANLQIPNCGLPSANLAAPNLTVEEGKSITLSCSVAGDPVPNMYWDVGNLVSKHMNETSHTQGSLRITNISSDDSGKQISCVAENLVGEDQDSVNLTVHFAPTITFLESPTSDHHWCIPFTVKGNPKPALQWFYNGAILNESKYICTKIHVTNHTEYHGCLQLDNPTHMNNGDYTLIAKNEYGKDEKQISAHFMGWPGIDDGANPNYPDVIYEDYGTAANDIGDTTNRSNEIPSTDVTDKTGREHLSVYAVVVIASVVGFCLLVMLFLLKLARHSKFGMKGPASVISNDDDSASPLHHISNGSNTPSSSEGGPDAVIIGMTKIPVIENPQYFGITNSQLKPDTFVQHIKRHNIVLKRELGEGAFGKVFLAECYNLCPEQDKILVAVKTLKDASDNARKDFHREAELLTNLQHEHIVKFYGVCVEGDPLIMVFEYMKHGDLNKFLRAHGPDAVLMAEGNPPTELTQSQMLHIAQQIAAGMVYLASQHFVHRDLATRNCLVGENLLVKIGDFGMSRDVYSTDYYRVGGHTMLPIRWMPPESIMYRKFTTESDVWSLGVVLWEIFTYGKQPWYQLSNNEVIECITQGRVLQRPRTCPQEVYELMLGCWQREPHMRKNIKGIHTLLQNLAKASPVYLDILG
Chain of Fyn (P06241 whole entry): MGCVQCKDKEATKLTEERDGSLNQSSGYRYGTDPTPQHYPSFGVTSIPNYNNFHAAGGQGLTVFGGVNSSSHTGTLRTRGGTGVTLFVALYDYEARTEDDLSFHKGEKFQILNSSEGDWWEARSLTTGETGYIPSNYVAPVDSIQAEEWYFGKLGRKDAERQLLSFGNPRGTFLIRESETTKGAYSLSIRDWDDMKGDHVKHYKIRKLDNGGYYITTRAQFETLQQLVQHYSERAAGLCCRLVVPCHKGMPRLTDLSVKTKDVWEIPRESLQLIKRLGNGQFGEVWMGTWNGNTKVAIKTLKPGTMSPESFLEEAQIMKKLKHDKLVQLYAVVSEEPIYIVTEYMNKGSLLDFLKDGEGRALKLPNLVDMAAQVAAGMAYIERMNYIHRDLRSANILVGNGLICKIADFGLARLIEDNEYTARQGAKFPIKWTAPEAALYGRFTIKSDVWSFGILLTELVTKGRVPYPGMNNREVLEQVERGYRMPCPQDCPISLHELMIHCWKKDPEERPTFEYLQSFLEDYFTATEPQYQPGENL

CNc1cc(O)c2c(c1)/C=C/C[C@H](O)[C@H](O)C(=O)/C=C\[C@@H](C)[C@H](C)OC2=O [Compound 091]
IC50 (Abl kinase): < 214 nM | IC50 (Flt3): < 214 nM | IC50 (Fyn): < 214 nM | IC50 (Lyn): < 214 nM | IC50 (TrkB): < 214 nM | cell growth inhibition, concentration range of sensitivity [1]: low-nM or sub-μM | tumor regression [2]: ~70% | tumor regression ([3]; 10 mg/kg i.v., for the first three weeks): 100% | tumor regression ([3]; 20 mg/kg i.v., in all mice): 100% | tumor regression ([3]; 30 mg/kg i.v., in all mice): 100% | tumor regression ([3]; 40 mg/kg i.v., in all mice): 100% | tumor status of mice at the end of the study ([3]; mice given 091): tumor free | effect on PANC-1 cancer cell growth, compound alone ([4]; 1 μM alone, separate experiments (data not shown)): did not affect | effect on cytotoxicity of SN-38 ([4]; 1 μM test compound in combination with SN-38): enhanced
